From patent US12590953B2, “Methods for screening cereblon modifying compounds” (CELGENE CORPORATION, priority 2018, dated 2026)
Entries after “also recorded” stand apart in the source; their conditions may differ. Like-named read-outs stand apart in the source and are kept apart here.

Experiments:
[1] = system: SALL4 mRNA; experiment: In situ hybridization for SALL4 RNA in rabbit embryo limb buds; format: in vivo; conditions: treated vs untreated
Protocol: A fully automated SALL4 ISH assay was performed on Leica BOND RX IHC & ISH stainer with the BOND Research Detection System (Leica, Cat. No. DS9455). Formalin fixed paraffin embedded (FFPE) rabbit embryos were sectioned at four micron thickness, baked at 60° C. for 1 hour and then deparaffinized in Dewax solution at 72° C. Antigen retrieval was performed in Epitope Retrieval 2 (ER2, pH 9.0) for 15 min at 95° C. Custom-designed rabbit SALL4 target probe was applied on the slides and incubated at 42° C. for 2 hours. SALL4 signal was then amplified with the RNAscope LS Multiplex Fluorescent Reagent Kit (ACD, Cat. No. 322800) using the BOND RX default ACD ISH protocol. SALL4 signal was detected with Opal TSA fluorophore 570 (PerkinElmer, Cat. No. FP1488001KT) at a 1:1500 dilution for a 30 min incubation. Slides were then coverslipped manually using ProLong Diamond Antifade Mountant with DAPI (Life Technology, Catalog No. P36966). After whole slide scan at 4× magnification was completed, 40× magnification images were acquired using Perkin Elmer Vectra 3.0 multispectral image platform.

[2] = biological target: T1, SALL4 (Homo sapiens, UniProt Q96SW2); experiment: SALL4 immunohistochemistry in huCRBN mouse testis; format: in vivo; conditions: huCRBN mice, up to 1000 mg/kg for 7 days
T1 construct: from tissue; host or cells: testis of homozygous huCRBN knock-in mice
T1 sequence (Q96SW2 whole entry): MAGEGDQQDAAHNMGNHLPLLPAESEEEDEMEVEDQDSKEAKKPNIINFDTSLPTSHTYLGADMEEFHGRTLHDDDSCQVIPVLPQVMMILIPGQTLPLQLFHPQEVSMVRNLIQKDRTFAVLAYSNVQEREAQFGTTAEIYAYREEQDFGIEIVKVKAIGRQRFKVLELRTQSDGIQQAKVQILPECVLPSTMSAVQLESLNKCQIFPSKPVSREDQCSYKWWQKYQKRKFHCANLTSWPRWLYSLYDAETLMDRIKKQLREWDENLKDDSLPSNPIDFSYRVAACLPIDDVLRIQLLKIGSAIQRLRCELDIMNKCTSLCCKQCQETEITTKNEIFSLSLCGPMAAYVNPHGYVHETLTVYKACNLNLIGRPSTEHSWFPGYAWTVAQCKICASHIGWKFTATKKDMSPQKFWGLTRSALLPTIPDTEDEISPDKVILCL
T1 sequence (Q3U1J4 whole entry partner): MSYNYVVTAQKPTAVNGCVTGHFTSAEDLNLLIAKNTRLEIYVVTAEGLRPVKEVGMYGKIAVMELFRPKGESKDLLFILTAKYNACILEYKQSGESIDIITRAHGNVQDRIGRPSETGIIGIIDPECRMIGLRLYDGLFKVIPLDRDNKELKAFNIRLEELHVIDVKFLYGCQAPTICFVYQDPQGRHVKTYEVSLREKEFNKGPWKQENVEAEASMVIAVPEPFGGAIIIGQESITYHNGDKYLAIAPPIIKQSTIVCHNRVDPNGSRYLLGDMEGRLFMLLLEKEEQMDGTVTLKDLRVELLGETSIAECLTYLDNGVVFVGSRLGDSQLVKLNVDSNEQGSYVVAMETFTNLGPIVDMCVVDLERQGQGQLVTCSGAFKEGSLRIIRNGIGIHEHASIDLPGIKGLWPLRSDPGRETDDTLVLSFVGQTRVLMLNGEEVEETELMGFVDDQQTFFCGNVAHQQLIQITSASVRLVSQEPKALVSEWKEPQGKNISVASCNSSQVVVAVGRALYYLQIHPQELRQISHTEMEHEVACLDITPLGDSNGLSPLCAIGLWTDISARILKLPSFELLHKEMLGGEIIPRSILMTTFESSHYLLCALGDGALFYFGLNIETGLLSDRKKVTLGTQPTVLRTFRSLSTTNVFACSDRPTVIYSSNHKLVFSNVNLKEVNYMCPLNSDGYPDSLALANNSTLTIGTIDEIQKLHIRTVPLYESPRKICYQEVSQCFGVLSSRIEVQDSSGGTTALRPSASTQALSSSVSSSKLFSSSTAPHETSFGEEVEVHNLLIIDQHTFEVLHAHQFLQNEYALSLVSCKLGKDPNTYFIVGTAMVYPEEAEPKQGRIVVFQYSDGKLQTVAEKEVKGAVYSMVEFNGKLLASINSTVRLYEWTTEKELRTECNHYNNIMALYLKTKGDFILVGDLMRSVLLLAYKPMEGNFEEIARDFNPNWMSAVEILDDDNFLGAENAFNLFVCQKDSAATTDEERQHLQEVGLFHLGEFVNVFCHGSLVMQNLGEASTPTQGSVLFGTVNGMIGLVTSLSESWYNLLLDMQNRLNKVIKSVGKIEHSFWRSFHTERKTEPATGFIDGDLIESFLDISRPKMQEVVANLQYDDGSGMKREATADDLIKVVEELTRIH
Protocol: The SALL4 and ZFP91 protein levels were examined by immunohistochemistry in rabbit, wild-type mouse, and humanized cereblon mouse testes. […] HuCRBN Mice were treated for 7 days and testis were collected and examined by immunohistochemistry (n=3 animals per treatment group per species).
Rabbit embryos were stained for SALL4, and mouse testis were stained for SALL4 and ZFP91. Immunohistochemistry (IHC) was performed on the Bond-III automated slide stainer (Leica Microsystems, Buffalo Grove, Ill.) using the Bond Polymer Refine Detection system (Leica Microsystems, DS9800). Formalin fixed paraffin embedded (FFPE) tissues were sectioned at four micron thick and deparaffinized on the Bond-Max instrument. Antigen retrieval was performed with Epitope Retrieval 2 (ER2, pH 9.0) for 20 min at 100° C. The slides were blocked for endogenous peroxidase activity with Peroxide Block for 5 minutes at room temperature. Sections were then incubated with the mouse monoclonal anti-SALL4 EE-30 antibody (Santa Cruz, sc-101147) at a 1:100 dilution for 60 min at room temperature, or with the rabbit monoclonal anti-ZFP91 antibody (Celgene custom clone 122-8-6) at 0.25 ug/ml. For mouse testis, primary antibodies were incubated for 15 min at room temperature, and Post-Primary and horseradish peroxidase (HRP) labeled Polymer were incubated at the instrument's default conditions. […]

[3] = system: rabbit embryos; conditions: in vivo
Protocol: All animals were housed and fed according to IACUC approved procedures. The rabbits either remained untreated (n=4 per time point) or received 180 mg/kg of Thalidomide per day (n=5 per time point) starting on GD7. Dose levels and sensitive gestation windows were selected based on previously reported finding in Thalidomide teratogenicity studies (Christian MS, birth defect research, 2007)
Resorption sites, embryo mortality and gross observations were recorded during embryo collection. Embryo mortality was based on the absence of a heartbeat. There were no resorption sites or embryo and placental abnormalities in the control group. […] On Day 8, all 41 implantation sites from 5 rabbits appeared normal. On Day 9, 1/5 rabbits were affected and there was 1 resorption site out of a total of 52 implantation sites. On Day 10, 1/5 rabbit was affected and there was 1 resorption site out of a total of 38 implantation sites. On Day 11, 3/5 rabbits were affected, with 2 resorptions sites (5.41%) and 2 dead embryos (5.41%) out of 37 implantation sites. On Day 12, 5/5 rabbits were affected, with 3 resorption sites (6.98%) and 11 dead embryos (25.58%) out of […] implantation sites.
Cesarean sections were performed in each rabbit 3 hours after the last Thalidomide dose to ensure maximum plasma concentration of Thalidomide (CMax=3 hours) (Hui et al, Reproductive Toxicology, 2014). The uteri were removed, the implantation sites were counted and mortality and resorptions noted during embryo dissection. GD8 embryos were not dissected and were fixed in situ attached to the placental site and uterine wall. The entire implantation site was processed, embedded in paraffin and sectioned at 4 microns for immunohistochemistry. GD 9-12 embryos were collected with fetal membranes, fixed in 10% Neutral Buffered Formalin for 24 hours and transferred to 70% Ethanol. After fixation fetal membranes were removed and embryos processed, embedded in paraffin and sectioned at 4 microns for immunohistochemistry and in situ hybridization procedures.
More specifically, adult female New Zealand white rabbits between 5 and 8 months of age were time mated for embryo collection at Gestation Days (GD) 8, 9, 10, 11 and 12 as shown in Table 1 below.

[4] = female, New Zealand white, 8 gestation day
[5] = female, New Zealand white, 9 gestation day
[6] = female, New Zealand white, 10 gestation day
[7] = female, New Zealand white, 11 gestation day
[8] = female, New Zealand white, 12 gestation day

O=C1CCC(N2C(=O)c3ccccc3C2=O)C(=O)N1 (stereo not drawn) [thalidomide]
SALL4 mRNA levels (ISH) [1]: not altered upon thalidomide treatment | SALL4 protein levels in testis [2]: remain unchanged; also recorded: caused degradation of ZFP91 but not SALL4 | Dead (dead embryos) ([3]; female, New Zealand white): 0 | Resorbed, share of implantation sites ([3]; female, New Zealand white): 1.92% | Average number of implantation sites [3, 4]: 8.2 | Resorbed (resorption sites) [3, 4]: 0 | Sites/Rabbit (implantation sites per individual rabbit; R = Resorbed, D = Dead) [3, 4]: 9, 9, 8, 7, 8 | Average number of implantation sites [3, 5]: 10.4 | Rabbits affected [3, 5]: 1/5 | Resorbed (resorption sites) [3, 5]: 1 | Average number of implantation sites [3, 6]: 8.75 | Dead (dead embryos) [3, 6]: 1 | Dead, share of implantation sites [3, 6]: 0.03% | Rabbits affected [3, 6]: 1/5 | Average number of implantation sites [3, 7]: 7.4 | Dead (dead embryos) [3, 7]: 2 | Dead, share of implantation sites [3, 7]: 5.41% | Rabbits affected [3, 7]: 3/5 | Resorbed (resorption sites) [3, 7]: 2 | Resorbed, share of implantation sites [3, 7]: 5.41% | Average number of implantation sites [3, 8]: 8.8 | Dead (dead embryos) [3, 8]: 11 | Dead, share of implantation sites [3, 8]: 25.58% | Rabbits affected [3, 8]: 5/5 | Resorbed (resorption sites) [3, 8]: 3 | Resorbed, share of implantation sites [3, 8]: 6.98% | Implantation frequency vs control [3]: no significant differences in implantation frequency
